Data reported in US20080311212A1, “CRYSTALLINE ISOXAZOLE DERIVATIVE AND PHARMACEUTICAL PREPARATION THEREOF” (Dainippon Sumitomo Pharma Co., Ltd., priority 2001, published 2008).

Assays:
Format in all cases: physicochemical
[1] = Crystal type stability on grinding / in aqueous suspension; conditions: for change of crystal type during grinding: α: wet grinding under high-pressure conditions, suspended in water, β: pneumatic and wet grinding
From the text: When the α type crystals were subjected to pneumatic grinding, they adhered remarkably to the inside of a grinding apparatus. Therefore, their pulverization to a desirable size by one run of grinding operation was difficult, so that it was necessary to grind them repeatedly several times. Since it often became necessary to remove the crystals adhering to the inside, the grinding efficiency and the yield were low.
When the β type crystals were subjected to pneumatic grinding, they hardly adhered to the inside of a grinding apparatus, were easy to handle in a process of their formulation into a pharmaceutical preparation, and could be continuously ground. The β type crystals could easily be ground also by a wet grinding method and made it possible to produce finer powder that could be formulated into a pharmaceutical preparation.
The β type crystals of the present invention may be obtained also by stirring phosphate or a type crystals of the isoxazole derivative of the formula 1 in a suspended state in water for a definite time. In the case of the phosphate, the β type crystals could be obtained, for example, by stirring the phosphate at 50° C. for about 5 hours. […] So long as seed crystals for the β type crystals are used, it is also possible to produce the β type crystals by using any of hydrophobic organic solvents such as aromatic hydrocarbons (e.g. toluene and benzene), ethers (e.g. t-butyl methyl ether, diisopropyl ether and diethyl ether), aliphatic hydrocarbons (e.g. cyclohexane, hexane and heptane), halogen-containing solvents (e.g. chloroform, methylene chloride and 1,2-dichloroethane) and esters (e.g. ethyl acetate). For example, the isoxazole derivative of the formula 1 may be crystallized by dissolving the derivative in a mixed solvent of toluene and 2-propanol and adding hexane thereto.

[2] = Dry pneumatic grinding of crystals 2 (Jet O Mill): particle size distribution of ground crystals; conditions: one run of dry pneumatic grinding, 0.44-0.49 MPa, laser diffraction (dry measurement)
From the text: Crystals were charged into a Jet 0 Mill Model JOMO101 (mfd. by Seishin Enterprise Co., Ltd.) and subjected to pneumatic grinding at a forcing pressure and a grinding pressure (which had been set at the same pressure) of 0.44 MPa to 0.49 MPa. […] A laser diffraction particle size distribution meter (dry measurement) was used for measuring the particle size distribution. It has already been confirmed that repeated grinding or the increase of the grinding pressure is necessary for further particle size reduction.

[3] = Wet high-pressure grinding of crystals (Microfluidizer): particle size distribution of ground crystals; conditions: wet high-pressure grinding in water, 100 MPa, laser diffraction (wet measurement)
Experimental: Crystals were charged into Microfluidizer Model M110Y (mfd. by Mizuho Industrial Co., Ltd.) together with water and subjected to high-pressure grinding. […] In this case, the α type crystals were solidified during the grinding. […] The particle size distribution was measured by dispersing the ground crystals in water in an agate mortar. A laser diffraction particle size distribution meter (wet measurement) was used for measuring the particle size distribution.

[4] = Dry pneumatic grinding of crystals 1 (A-O Jet Mill): amount adhering to inside of apparatus; conditions: 7 g crystals charged, pneumatic grinding at 0.49 MPa
From the text: Crystals were charged into an A-O Jet Mill (mfd. by Seishin Enterprise Co., Ltd.) and subjected to pneumatic grinding at a forcing pressure of 0.49 MPa and a grinding pressure of 0.49 MPa.

C[C@@H](c1ccc(-c2ccccc2)c(F)c1)c1cc(/N=C(/N)N2CCOCC2)on1 [β type crystals, 3-[(1S)-1-(2-fluorobiphenyl-4-yl)ethyl]-5-{[amino(morpholin-4-yl)methylene]amino}isoxazole]
thermodynamic stability of crystal type ([1]; stirring phosphate or α type crystals suspended in water gives β type crystals): thermodynamically more stable than the α type crystals | change of crystal type during grinding [1]: did not change the crystal type | Undersize particle D50% particle size ([2]; D50%): 10.2 μm | Undersize particle D50% particle size ([2]; first D50% line): 4.7 μm | Undersize particle D50% particle size ([3]; D50%): 3.2 μm | Undersize particle D50% particle size ([3]; first D50% line): 1.7 μm | Adhering amount [4]: 0.00 g

C[C@@H](c1ccc(-c2ccccc2)c(F)c1)c1cc(/N=C(/N)N2CCOCC2)on1 [α type crystals, 3-[(1S)-1-(2-fluorobiphenyl-4-yl)ethyl]-5-{[amino(morpholin-4-yl)methylene]amino}isoxazole]
change of crystal type during grinding [1]: changed to the β type crystals | Undersize particle D50% particle size ([2]; D50%): 79.3 μm | Undersize particle D50% particle size ([2]; first D50% line): 27.6 μm | Undersize particle D50% particle size ([3]; D50%): 58.1 μm | Undersize particle D50% particle size ([3]; first D50% line): 26.1 μm | Adhering amount [4]: 2.06 g
